Assay results taken from US10918620B2, “Use of statins for periodontal disease and bone regeneration” (priority 2012, dated 2021).

Columns and labels:
periodontal disease = assay: Concurrent cohort study of systemic statin therapy: periodontal clinical parameters (BOP, PISA); type: in vivo, human; settings: patients taking statins (Atorvastatin 20 mg every 24 hours, systemic); 6 months
Procedure: A concurrent cohort study was perform, with two groups of patients, some exposed to statin therapy and some not exposed to statin therapy. Patient submitted to statin therapy received Atorvastatin 20 mg, every 24 hours, indicated as part of a preventive cardiologic therapy.
The eligible patients were those that meet the following inclusion criteria: a) informed consent, b) over 35 years, c) with at least 14 natural teeth in the mouth (excluding third molars), d) have some degree of periodontal disease.
Measures were taken when starting the study and after 6 months for both groups of patients. The examination included probing depth (PD), clinical attachment level (CAL) and bleeding on probing index (BOP).
Periodontal probing was performed to each tooth at 6 sites (mesiovestibular, mediovestibular, distovestibular, mesiolingual/palatal, mediolingual/palatal and distolingual/palatal). CAL was defined as the distance from the cementoenamel junction to the pocket bottom. […] BI was determined by assigning a “+” sign to the presence of bleeding on probing in vestibular and/or palatal of the examined tooth and with a “−” sign to the absence of bleeding. […]
Periodontal Inflamed Surface Area (PISA) was also calculated using data insertion loss, gingival recession and bleeding on probing. […]

[1] = tested on: IL-6, IL-10, C-reactive protein (CRP) in GCF; assay: Cohort study of systemic statin therapy: inflammation biomarkers in gingival crevicular fluid by Elisa; type: in vivo, human
From the text: Measurements at Gingival Crevicular Fluid Level (GCF).
Upon confirmation of periodontal diagnosis, samplings of GCF were taken by standard procedures. These are described below:
Two sites were selected from each quadrant which PD is higher. After isolating the tooth with cotton balls, supra-gingival plaque was removed with a curette without touching the gingival margin. Crevicular site was gently dried with air. The GCF was collected with paper cones. The paper points were inserted into the sulcus/pocket until feeling a medium resistance and were left for 40 seconds. Cones contaminated with saliva or blood were excluded. Later the paper cones were placed in a tube. GCF samples were storage at −80° C.
IL-6, IL-10, and C-reactive protein (CRP) were measured as inflammation biomarkers. Measurements were performed through Elisa test. Measurements were performed at the start of the study and after 6 months for both groups of patients, with and without indication of statins.

[2] = tested on: supragingival bacterial plaque and gingival inflammation; settings: clinical results, mouthwash; cited from earlier work
[3] = tested on: 52 bacteria isolated from subgingival plaque; settings: cited from earlier work
[4] = tested on: release of cytokines and neutrophil adhesion to venous endothelium; settings: pretreatment; patients undergoing coronary artery bypass surgery, bypass, or cardiopulmonary graft; cited from earlier work
[5] = tested on: Human PBMC stimulated with PHA (T cells); assay: Proliferation of T cells evaluation (CellTrace Violet, flow cytometry); type: cell-based; settings: PHA 25 μg/ml, 4 days; FIG. 2
Procedure: The specific objectives of this assay were to evaluate the degree of cell toxicity (cell viability measured in dead % of T cells) and the level of T cell proliferation under a specific stimulus in the presence of: Human PBMC derived from healthy control donors were stimulated with PHA, 25 μg/ml, in presence or absence of Atorvastatin (AT) in various formulations: irradiated (ATi) or non-irradiated (ATni) Atorvastatin, soluble or toothpaste. […] Later cells were harvested and stained with anti-CD4 antibody conjugated to FITC and the samples were analyzed by flow cytometer Beckman Coulter XL.

CC(C)c1c(C(=O)Nc2ccccc2)c(-c2ccccc2)c(-c2ccc(F)cc2)n1CC[C@@H](O)C[C@@H](O)CC(=O)O [statins, Atorvastatin]
reduction of area of periodontal inflammation measured by the PISA index (periodontal disease): 58.66%
reduction of bleeding on probing index (BOP) (periodontal disease): 60.89%
levels of IL-6 in GCF, average ([1]; patients consuming statins (Atorvastatin 20 mg every 24 hours), patients without statins 4.8 pg/ml): 0.47 pg/mL
reduction of IL-6 in GCF ([1]; patients consuming statins vs patients without statins use): 90.1%
levels of IL-10 in GCF ([1]; patients taking statins, average in patients not consuming statins 1.23 pg/ml): no IL-10 could be detected
reduction of levels of CRP (C-reactive protein) in GCF ([1]; patients taking systemic statins): 93%

[H]/N=C(\N/C(=N/[H])NCCCCCCNC(=N)NC(=N)Nc1ccc(Cl)cc1)Nc1ccc(Cl)cc1 [chlorhexidine]
decreased levels of gingival inflammation [2]: 45%
decreased levels of supragingival bacterial plaque [2]: 55%
antimicrobial resistance [3]: has not been detected
concentration at which all bacteria isolated from patients with periodontitis were inhibited [3]: 250 mg/mL

CC(C)c1c(C(=O)Nc2ccccc2)c(-c2ccccc2)c(-c2ccc(F)cc2)n1CC[C@@H](O)C[C@@H](O)CC(=O)O [atorvastatin]
release of cytokines and neutrophil adhesion to venous endothelium [4]: significantly reduce the release of cytokines and neutrophil adhesion to venous endothelium

CC(C)c1c(C(=O)Nc2ccccc2)c(-c2ccccc2)c(-c2ccc(F)cc2)n1CC[C@@H](O)C[C@@H](O)CC(=O)O [Soluble ATi, Atorvastatin]
T cell proliferation (immunomodulatory behavior) [5]: reduces immune cell proliferation
